One assay addresses AKT (Homo sapiens, UniProt P31749). In words: RBC HotSpot kinase assay (33P-ATP, P81 filter-binding), AKT. Conditions: Table 28, biochemical kinase assay; read-out: AKT IC50. The format is biochemical. The method in brief:
(§1)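 Hepes pH 7.5/MgCl2/EGTA/Brij35/BSA/Na3VO4/DTT buffer, cofactors per kinase; cpd acoustically dispensed, 20 min preinc RT; start w/ 33P-ATP, 2 h RT; P81 filter readout; 10-pt singlet IC50.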

The next assay addresses T1, LATS1 (Homo sapiens, UniProt O95835).
T1 sequence (O95835 1-1130): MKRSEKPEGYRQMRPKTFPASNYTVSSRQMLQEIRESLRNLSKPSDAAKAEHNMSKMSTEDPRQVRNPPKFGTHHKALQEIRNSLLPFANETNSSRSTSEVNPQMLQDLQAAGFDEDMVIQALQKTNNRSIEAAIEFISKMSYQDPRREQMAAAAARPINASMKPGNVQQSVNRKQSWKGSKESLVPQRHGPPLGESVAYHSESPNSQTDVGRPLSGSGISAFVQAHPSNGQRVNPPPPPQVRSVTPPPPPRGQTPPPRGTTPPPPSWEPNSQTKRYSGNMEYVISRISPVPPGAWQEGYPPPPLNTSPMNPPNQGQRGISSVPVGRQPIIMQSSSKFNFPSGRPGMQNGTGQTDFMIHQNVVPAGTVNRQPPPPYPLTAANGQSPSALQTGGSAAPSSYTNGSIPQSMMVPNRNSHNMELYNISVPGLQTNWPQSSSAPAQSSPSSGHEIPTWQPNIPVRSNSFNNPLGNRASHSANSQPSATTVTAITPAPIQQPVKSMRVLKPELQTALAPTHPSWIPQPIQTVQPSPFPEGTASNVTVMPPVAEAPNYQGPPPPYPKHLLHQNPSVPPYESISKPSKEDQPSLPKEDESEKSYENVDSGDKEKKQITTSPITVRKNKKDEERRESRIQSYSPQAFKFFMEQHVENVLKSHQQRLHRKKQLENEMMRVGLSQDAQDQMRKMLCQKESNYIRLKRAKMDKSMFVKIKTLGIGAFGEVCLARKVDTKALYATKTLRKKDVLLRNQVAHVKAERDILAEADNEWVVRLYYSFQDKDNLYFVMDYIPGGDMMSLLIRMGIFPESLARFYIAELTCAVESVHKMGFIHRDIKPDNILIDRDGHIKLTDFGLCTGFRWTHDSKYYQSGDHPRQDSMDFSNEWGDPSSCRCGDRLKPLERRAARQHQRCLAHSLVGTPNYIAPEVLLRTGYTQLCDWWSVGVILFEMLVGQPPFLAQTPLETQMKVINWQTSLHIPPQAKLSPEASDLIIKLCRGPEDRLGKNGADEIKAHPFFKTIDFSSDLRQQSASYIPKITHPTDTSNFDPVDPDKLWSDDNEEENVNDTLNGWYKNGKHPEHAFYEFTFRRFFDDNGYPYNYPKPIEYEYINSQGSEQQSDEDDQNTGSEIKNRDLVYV
In words: RBC HotSpot kinase assay (33P-ATP, P81 filter-binding), LATS1. It is filed as biochemical. As to conditions: Table 28, biochemical kinase assay; read-out: LATS1 IC50. The procedure, abridged:
as §1

Structures are written as SMILES.

This passage reports IC50 results from US20250361230A1, “LATS Inhibitors and Uses Thereof” (The USA, as Represented by the Secretary, Dept. of Heath …, priority 2022, published 2025).

Chain of AKT (P31749 whole entry): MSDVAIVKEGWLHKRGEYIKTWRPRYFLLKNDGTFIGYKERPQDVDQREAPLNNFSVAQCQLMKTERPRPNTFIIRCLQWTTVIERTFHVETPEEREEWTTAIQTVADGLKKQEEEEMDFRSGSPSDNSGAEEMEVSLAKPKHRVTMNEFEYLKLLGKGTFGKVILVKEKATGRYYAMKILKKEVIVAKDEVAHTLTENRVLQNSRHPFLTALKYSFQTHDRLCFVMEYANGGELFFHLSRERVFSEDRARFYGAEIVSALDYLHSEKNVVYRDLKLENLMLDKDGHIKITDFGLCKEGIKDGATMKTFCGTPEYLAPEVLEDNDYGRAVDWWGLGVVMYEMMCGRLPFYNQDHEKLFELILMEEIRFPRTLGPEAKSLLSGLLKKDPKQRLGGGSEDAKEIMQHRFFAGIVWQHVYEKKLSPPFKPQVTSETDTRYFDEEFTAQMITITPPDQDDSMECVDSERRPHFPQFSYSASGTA

Consider `C[C@@H]1CNC[C@H](C)[C@@]1(O)c1ccc(-c2ccnc3[nH]cc(F)c23)cc1Cl` [Compound 1, (3S,4S,5R)-4-(2-chloro-4-(3-fluoro-1H-pyrrolo[2,3-b]pyridin-4-yl)phenyl)-3,5-dimethylpiperidin-4-ol], for which the half-maximal inhibitory concentration (IC50) – broadly, the concentration needed to halve the response being measured – amounted to 15.4 nM at AKT and 11.3 nM at LATS1.

`C[C@@H]1CNC[C@H](C)[C@@]1(O)c1ccc(-c2ccnc3[nH]cc(F)c23)cc1` [Compound 2, (3R,4s,5S)-4-(4-(3-fluoro-1H-pyrrolo[2,3-b]pyridin-4-yl)phenyl)-3,5-dimethylpiperidin-4-ol]: the IC50 was determined as 147 nM on AKT and 16 nM on LATS1.

On to `C[C@@H]1CNC[C@H](C)[C@@]1(O)c1ccc(-c2ccnc3[nH]cc(F)c23)cc1F` [Compound 7, (3S,4s,5R)-4-(2-fluoro-4-(3-fluoro-1H-pyrrolo[2,3-b]pyridin-4-yl)phenyl)-3,5-dimethyl piperidin-4-ol], for which the values for the concentration for half-maximal inhibition (IC50) at AKT and on LATS1 were 192 nM and 15.9 nM, respectively.

Regarding `C[C@@H]1CNC[C@H](C)[C@@]1(O)c1ccc(-c2ccnc3[nH]cc(F)c23)nc1` [Compound 8, (3S,4s,5R)-4-(6-(3-fluoro-1H-pyrrolo[2,3-b]pyridin-4-yl)pyridin-3-yl)-3,5-dimethylpiperidin-4-ol], the figures for the IC50 on AKT and at LATS1 were 3330 nM and 53 nM, respectively.

Consider `Cc1cc(-c2ccnc3[nH]cc(F)c23)ccc1[C@@]1(O)[C@H](C)CNC[C@@H]1C` [Compound 9, (3S,4s,5R)-4-(4-(3-fluoro-1H-pyrrolo[2,3-b]pyridin-4-yl)-2-methylphenyl)-3,5-dimethylpiperidin-4-ol], for which the IC50 was found to be 89.2 nM on AKT and 9.4 nM at LATS1.

Take `C[C@@H]1CNC[C@H](C)[C@@]1(O)c1c(F)cc(-c2ccnc3[nH]cc(F)c23)cc1F` [Compound 13]: the IC50 on AKT is 362 nM; on LATS1 it was 8.5 nM.

In the case of `C[C@@H]1CNC[C@H](C)[C@@]1(O)c1ccc(-c2ccnc3[nH]cc(F)c23)cc1OC(F)(F)F` [Compound 14, (3S,4s,5R)-4-(4-(3-fluoro-1H-pyrrolo[2,3-b]pyridin-4-yl)-2-(trifluoromethoxy)phenyl)-3,5-dimethylpiperidin-4-ol], the concentration for half-maximal inhibition (IC50) on AKT is 112 nM; at LATS1 it was 5.4 nM.

As for `C[C@@H]1CN(Cc2ccccn2)C[C@H](C)[C@@]1(O)c1c(F)cc(-c2ccnc3[nH]cc(F)c23)cc1F` [Compound 17, (3S,4s,5R)-4-(2,6-difluoro-4-(3-fluoro-1H-pyrrolo[2,3-b]pyridin-4-yl)phenyl)-3,5-dimethyl-1-(pyridin-2-ylmethyl)piperidin-4-ol], the figures for the 50% inhibitory concentration (IC50) at AKT and on LATS1 were 1070 nM and 10.9 nM, respectively.

With `C[C@@H]1CN(C)C[C@H](C)[C@@]1(O)c1cnc(-c2ccnc3[nH]cc(F)c23)cc1Cl` [Compound 22, (3S,4s,5R)-4-(4-chloro-6-(3-fluoro-1H-pyrrolo[2,3-b]pyridin-4-yl)pyridin-3-yl)-1,3,5-trimethylpiperidin-4-ol], the half-maximal inhibitory concentration (IC50) at AKT worked out at 505 nM; on LATS1 it was 1.1 nM.

For the molecule `Cc1cc(-c2ccnc3[nH]cc(F)c23)ccc1[C@@]1(O)[C@H](C)CN(C2COC2)C[C@@H]1C` [Compound 24, (3S,4s,5R)-4-(4-(3-fluoro-1H-pyrrolo[2,3-b]pyridin-4-yl)-2-methylphenyl)-3,5-dimethyl-1-(oxetan-3-yl)piperidin-4-ol], the IC50 on AKT was found to be 374 nM; at LATS1 it was 5.7 nM.

For `Cc1cc(-c2ccnc3[nH]cc(F)c23)ccc1[C@@]1(O)[C@H](C)CN(C(C)C)C[C@@H]1C` [Compound 29, (3S,4s, 5R)-4-(4-(3-fluoro-1H-pyrrolo[2,3-b]pyridin-4-yl)-2-methylphenyl)-1-isopropyl-3,5-dimethylpiperidin-4-ol], the 50% inhibitory concentration (IC50) worked out at 43.5 nM on AKT and 1.3 nM at LATS1.

With `Cc1cc(-c2ccnc3[nH]cc(F)c23)cc(F)c1C1(O)[C@H](C)CN(C2COC2)C[C@@H]1C` (stereo partly drawn) [Compound 30, (3S,5R)-4-(2-fluoro-4-(3-fluoro-1H-pyrrolo[2,3-b]pyridin-4-yl)-6-methylphenyl)-3,5-dimethyl-1-(oxetan-3-yl)piperidin-4-ol], the IC50 at AKT amounted to 698 nM; on LATS1, 5.9 nM.
